Assay results as given in US20160102052A1, “Use of Cysteamine in Treating Infections caused by Yeasts/Moulds” (priority 2014, published 2016).

Tested on: Exophiala dermatitidis CA01
Assay: Broth microdilution chequerboard analysis of Lynovex (NM001) in combination with clinical antifungals
Format: cell-based
Conditions: 35° C.; for MIC50: Exophiala dermatitidis, NM001 in isolation
Protocol: The aim of the experiment was to determine the effect of Lynovex (NM001) on the antifungal drug susceptibility of Exophiala dermatitidis CA01. Microtitre plates were prepared following CLSI recommendations for broth microdilution chequerboard method. These plates contained a serial doubling dilution of Lynovex (NM001) combined with serial doubling dilutions of antifungals drugs; Fluconazole, Itraconazole, Caspofungin and Amphotericin B. […] These were incubated at 35° C. and read at 72 h, 96 h, 120 h and 144 h on the BioTek plate reader. […] Three independent E. dermatitidis CA01 cultures were grown on PDA slope for 6 days at 35° C. • 7. Cultures were removed from incubator. 2 ml sterile 0.15M NaCl added to the overnight culture and cells harvested from the surface of the agar. Cells placed in fresh bijou tube. • 8. The cultures were allowed to rest for up to 10 minutes, allowing any hyphae to settle to the bottom. The top layer of conidia was removed into fresh bijou. Hyphae were discarded. • 9. […] This is continued to F12 where 100 μl is removed and discarded. • f. This dilution series was repeated in rows G-H for the remaining 2 cultures • g. Plate read at OD530 on BioTek • h. […] This preparation step occurs in two parts. First, Lynovex (NM001) and antifungals are serially diluted, down and across microtitre plates, respectively. Equal volumes of Lynovex and antifungal are then combined in a fresh microtitre plate, prior to inoculation. […] Stock solutions of Lynovex and antifungals were prepared at 4× desired concentrations. The plate layout at the end of this protocol is the final concentration in the plate following the combination of Lynovex and antifungals and the addition of the inocula. […] All other wells contain 150 μl sterile dH2O. • 9. Serial doubling dilutions are carried out from A to B whereby 150 μl is removed from A and placed into B and mixed well. Then take 150 μl B and place in C and mix well. This is repeated down to row G where the final 150 μl is discarded. […] The same procedure is repeated for the other 4 antifungals, carrying the dilutions across the plate i.e. […] At the final dilution in column 10, the final 150 μl is discarded. […] Inoculating Plates with E. dermatitidis CA01 • 6. Add 100 μl (total volume 200 μl) of the prepared E. dermatitidis CA01 culture to the all wells on the plate except wells H12. […] H12 will contain 100 μl water and 100 μl 2×RPMI-1640 alone, constituting an uninoculated control. • 8. The plate is read in the BioTek at OD530. • 9. Plates are then placed in a plastic box containing a Petri dish of water, sealed and incubated at 35° C. The presence of the water in the dish or on the tissue provides and environment of relatively high humidity. • 10. OD530 is then read at 72 h, 96 h, 120 h and 144 h and raw data processed using Microsoft Excel. • 11. Fractional Inhibitory Concentration (FIC) Index values are generated using MIC100 for 72 h data and MIC50 for later time points using the following formula: […]

NCCS [NM001, cysteamine]
MIC50 (CA01, 72 h, GEOMEAN, Amphotericin B chequerboard, 72 h): 461 µg/mL | MIC50 (CA01, 72 h, GEOMEAN, Caspofungin chequerboard, 72 h): 1250 µg/mL | MIC50 (CA01, 72 h, GEOMEAN, Fluconazole chequerboard, 72 h): 1250 µg/mL | MIC50 (CA01, 72 h, GEOMEAN, Itraconazole chequerboard, 72 h): 1250 µg/mL | MIC50 (CA01, 72 h, MEAN, Amphotericin B chequerboard, 72 h): 667 µg/mL | MIC50 (CA01, 72 h, MEAN, Caspofungin chequerboard, 72 h): 1460 µg/mL | MIC50 (CA01, 72 h, MEAN, Fluconazole chequerboard, 72 h): 1250 µg/mL | MIC50 (CA01, 72 h, MEAN, Itraconazole chequerboard, 72 h): 1510 µg/mL | MIC50 (CA01, 72 h, Range, Amphotericin B chequerboard, 72 h): 125 to 1250 µg/mL | MIC50 (CA01, 72 h, Range, Caspofungin chequerboard, 72 h): 625 to 2500 µg/mL | MIC50 (CA01, 72 h, Range, Fluconazole chequerboard, 72 h): 1250 µg/mL | MIC50 (CA01, 72 h, Range, Itraconazole chequerboard, 72 h): 312 to 2500 µg/mL | MIC50 (CA01, 96 h, GEOMEAN, Amphotericin B chequerboard, 96 h): 625 µg/mL | MIC50 (CA01, 96 h, GEOMEAN, Caspofungin chequerboard, 96 h): 1090 µg/mL | MIC50 (CA01, 96 h, GEOMEAN, Fluconazole chequerboard, 96 h): 787 µg/mL | MIC50 (CA01, 96 h, GEOMEAN, Itraconazole chequerboard, 96 h): 1130 µg/mL | MIC50 (CA01, 96 h, MEAN, Amphotericin B chequerboard, 96 h): 885 µg/mL | MIC50 (CA01, 96 h, MEAN, Caspofungin chequerboard, 96 h): 1530 µg/mL | MIC50 (CA01, 96 h, MEAN, Fluconazole chequerboard, 96 h): 885 µg/mL | MIC50 (CA01, 96 h, MEAN, Itraconazole chequerboard, 96 h): 1520 µg/mL | MIC50 (CA01, 96 h, Range, Amphotericin B chequerboard, 96 h): 156 to 1250 µg/mL | MIC50 (CA01, 96 h, Range, Caspofungin chequerboard, 96 h): 156 to 2500 µg/mL | MIC50 (CA01, 96 h, Range, Fluconazole chequerboard, 96 h): 312 to 1250 µg/mL | MIC50 (CA01, 96 h, Range, Itraconazole chequerboard, 96 h): 312 to 2500 µg/mL | MIC50 (CA01, 120 h, GEOMEAN, Amphotericin B chequerboard, 120 h): 743 µg/mL | MIC50 (CA01, 120 h, GEOMEAN, Caspofungin chequerboard, 120 h): 1440 µg/mL | MIC50 (CA01, 120 h, GEOMEAN, Fluconazole chequerboard, 120 h): 1770 µg/mL | MIC50 (CA01, 120 h, GEOMEAN, Itraconazole chequerboard, 120 h): 1250 µg/mL | MIC50 (CA01, 120 h, MEAN, Amphotericin B chequerboard, 120 h): 977 µg/mL | MIC50 (CA01, 120 h, MEAN, Caspofungin chequerboard, 120 h): 1750 µg/mL | MIC50 (CA01, 120 h, MEAN, Fluconazole chequerboard, 120 h): 1880 µg/mL | MIC50 (CA01, 120 h, MEAN, Itraconazole chequerboard, 120 h): 1500 µg/mL | MIC50 (CA01, 120 h, Range, Amphotericin B chequerboard, 120 h): 156 to 1250 µg/mL | MIC50 (CA01, 120 h, Range, Caspofungin chequerboard, 120 h): 625 to 2500 µg/mL | MIC50 (CA01, 120 h, Range, Fluconazole chequerboard, 120 h): 1250 to 2500 µg/mL | MIC50 (CA01, 120 h, Range, Itraconazole chequerboard, 120 h): 625 to 2500 µg/mL | MIC50 (CA01, 144 h, GEOMEAN, Amphotericin B chequerboard, 144 h): 787 µg/mL | MIC50 (CA01, 144 h, GEOMEAN, Caspofungin chequerboard, 144 h): 1580 µg/mL | MIC50 (CA01, 144 h, GEOMEAN, Fluconazole chequerboard, 144 h): 1490 µg/mL | MIC50 (CA01, 144 h, GEOMEAN, Itraconazole chequerboard, 144 h): 1770 µg/mL | MIC50 (CA01, 144 h, MEAN, Amphotericin B chequerboard, 144 h): 1300 µg/mL | MIC50 (CA01, 144 h, MEAN, Caspofungin chequerboard, 144 h): 1880 µg/mL | MIC50 (CA01, 144 h, MEAN, Fluconazole chequerboard, 144 h): 1720 µg/mL | MIC50 (CA01, 144 h, MEAN, Itraconazole chequerboard, 144 h): 2030 µg/mL | MIC50 (CA01, 144 h, Range, Amphotericin B chequerboard, 144 h): 156 to 2500 µg/mL | MIC50 (CA01, 144 h, Range, Caspofungin chequerboard, 144 h): 625 to 2500 µg/mL | MIC50 (CA01, 144 h, Range, Fluconazole chequerboard, 144 h): 625 to 2500 µg/mL | MIC50 (CA01, 144 h, Range, Itraconazole chequerboard, 144 h): 625 to 2500 µg/mL | NM001 MIC100 in Combination (GEOMEAN, in combination with Amphotericin B, 72 h): 39 µg/mL | NM001 MIC50 in Combination (GEOMEAN, in combination with Amphotericin B, 96 h): 55 µg/mL | NM001 MIC50 in Combination (GEOMEAN, in combination with Amphotericin B, 120 h): 156 µg/mL | NM001 MIC50 in Combination (GEOMEAN, in combination with Amphotericin B, 144 h): 442 µg/mL | NM001 MIC100 in Combination (GEOMEAN, in combination with Caspofungin, 72 h): 78 µg/mL | NM001 MIC50 in Combination (GEOMEAN, in combination with Caspofungin, 96 h): 90 µg/mL | NM001 MIC50 in Combination (GEOMEAN, in combination with Caspofungin, 120 h): 118 µg/mL | NM001 MIC50 in Combination (GEOMEAN, in combination with Caspofungin, 144 h): 394 µg/mL | NM001 MIC100 in Combination (GEOMEAN, in combination with Fluconazole, 72 h): 312.5 µg/mL | NM001 MIC50 in Combination (GEOMEAN, in combination with Fluconazole, 96 h): 139 µg/mL | NM001 MIC50 in Combination (GEOMEAN, in combination with Fluconazole, 120 h): 263 µg/mL | NM001 MIC50 in Combination (GEOMEAN, in combination with Fluconazole, 144 h): 263 µg/mL | NM001 MIC100 in Combination (GEOMEAN, in combination with Itraconazole, 72 h): 179 µg/mL | NM001 MIC50 in Combination (GEOMEAN, in combination with Itraconazole, 96 h): 78 µg/mL | NM001 MIC50 in Combination (GEOMEAN, in combination with Itraconazole, 120 h): 136 µg/mL | NM001 MIC50 in Combination (GEOMEAN, in combination with Itraconazole, 144 h): 197 µg/mL | NM001 MIC100 in Combination (MEAN, in combination with Amphotericin B, 72 h): 39 µg/mL | NM001 MIC50 in Combination (MEAN, in combination with Amphotericin B, 96 h): 59 µg/mL | NM001 MIC50 in Combination (MEAN, in combination with Amphotericin B, 120 h): 221 µg/mL | NM001 MIC50 in Combination (MEAN, in combination with Amphotericin B, 144 h): 469 µg/mL | NM001 MIC100 in Combination (MEAN, in combination with Caspofungin, 72 h): 78 µg/mL | NM001 MIC50 in Combination (MEAN, in combination with Caspofungin, 96 h): 102 µg/mL | NM001 MIC50 in Combination (MEAN, in combination with Caspofungin, 120 h): 148 µg/mL | NM001 MIC50 in Combination (MEAN, in combination with Caspofungin, 144 h): 417 µg/mL | NM001 MIC100 in Combination (MEAN, in combination with Fluconazole, 72 h): 365 µg/mL | NM001 MIC50 in Combination (MEAN, in combination with Fluconazole, 96 h): 176 µg/mL | NM001 MIC50 in Combination (MEAN, in combination with Fluconazole, 120 h): 312.5 µg/mL | NM001 MIC50 in Combination (MEAN, in combination with Fluconazole, 144 h): 400 µg/mL | NM001 MIC100 in Combination (MEAN, in combination with Itraconazole, 72 h): 203 µg/mL | NM001 MIC50 in Combination (MEAN, in combination with Itraconazole, 96 h): 89 µg/mL | NM001 MIC50 in Combination (MEAN, in combination with Itraconazole, 120 h): 156.25 µg/mL | NM001 MIC50 in Combination (MEAN, in combination with Itraconazole, 144 h): 208 µg/mL | NM001 MIC100 in Combination (Range, in combination with Amphotericin B, 72 h): 39 µg/mL | NM001 MIC50 in Combination (Range, in combination with Amphotericin B, 96 h): 39.0625 to 78.125 µg/mL | NM001 MIC50 in Combination (Range, in combination with Amphotericin B, 120 h): 39.06 to 312.5 µg/mL | NM001 MIC50 in Combination (Range, in combination with Amphotericin B, 144 h): 312.5 to 625 µg/mL | NM001 MIC100 in Combination (Range, in combination with Caspofungin, 72 h): 78 µg/mL | NM001 MIC50 in Combination (Range, in combination with Caspofungin, 96 h): 39.0625 to 156.25 µg/mL | NM001 MIC50 in Combination (Range, in combination with Caspofungin, 120 h): 39.06 to 312.5 µg/mL | NM001 MIC50 in Combination (Range, in combination with Caspofungin, 144 h): 312.5 to 625 µg/mL | NM001 MIC100 in Combination (Range, in combination with Fluconazole, 72 h): 156 to 625 µg/mL | NM001 MIC50 in Combination (Range, in combination with Fluconazole, 96 h): 39.06 to 156.25 µg/mL | NM001 MIC50 in Combination (Range, in combination with Fluconazole, 120 h): 156.25 to 625 µg/mL | NM001 MIC50 in Combination (Range, in combination with Fluconazole, 144 h): 39.0625 to 625 µg/mL | NM001 MIC100 in Combination (Range, in combination with Itraconazole, 72 h): 78 to 312.5 µg/mL | NM001 MIC50 in Combination (Range, in combination with Itraconazole, 96 h): 39.06 to 156.25 µg/mL | NM001 MIC50 in Combination (Range, in combination with Itraconazole, 120 h): 78.13 to 312.5 µg/mL | NM001 MIC50 in Combination (Range, in combination with Itraconazole, 144 h): 156.25 to 312.5 µg/mL
